Experimental data: EP4652995A1, “ANTIBACTERIAL COMPOSITION, PHARMACEUTICAL AGENT, AND ANTIBACTERIAL METHOD” (priority 2023, dated 2024)

Test system: vancomycin resistant E.faecium (VRE)
Assay: In vitro proliferation inhibition of E. faecium (OD600)
Format: cell-based
Conditions: pH 7.5; 10 µg/mL V-161, 1 µg/mL niclosamide, alone or in combination; NaTY medium, 37°C, 13 hours; OD600 (Fig. 2)

Cc1ccc2[nH]c(-c3ccc(N(C)C)cc3)nc2c1 [Example V-161, N,N-dimethyl-4-(5-methyl-1H-benzo[d]imidazol-2-yl)aniline]
proliferation of bacteria: not completely inhibited

O=C(Nc1ccc([N+](=O)[O-])cc1Cl)c1cc(Cl)ccc1O [niclosamide, 5-chloro-2-hydroxy-N-(2-chloro-4-nitrophenyl)benzamide]
proliferation of bacteria: not completely inhibited
